ChEMBL document CHEMBL1201862, “PubChem BioAssay data set” (2004)
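Exposure lasted 48 hours, with cells grown in 96-well plates and compounds tested at five concentrations. GI50: concentration for 50% inhibition of growth.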 Activity calls are given as the source filed them. No stated cut-off is given here; in the data, active = GI50 up to about 1.1 µM and inactive = higher.

Legend:
Test in all cases: NCI tumour cell line growth inhibition, 48 h
OVCAR-5 = system: OVCAR-5
LOX IMVI = system: LOX IMVI
HCT-116 = system: HCT-116
SK-MEL-2 = system: SK-MEL-2
OVCAR-8 = system: OVCAR-8
M19-MEL = system: M19-MEL
SNB-75 = system: SNB-75
NCI-H226 = system: NCI-H226
COLO 205 = system: COLO 205
DLD-1 = system: DLD-1
SW-620 = system: SW-620
HCC 2998 = system: HCC 2998
CAKI-1 = system: CAKI-1
HOP-62 = system: HOP-62
Malme-3M = system: Malme-3M
UACC-62 = system: UACC-62
A498 = system: A498
MDA-N = system: MDA-N
PC-3 = system: PC-3
NCI/ADR-RES = system: NCI/ADR-RES

| SMILES | GI50 (OVCAR-5) | GI50 (LOX IMVI) | GI50 (HCT-116) | GI50 (SK-MEL-2) | GI50 (OVCAR-8) | GI50 (M19-MEL) | GI50 (SNB-75) | GI50 (NCI-H226) | GI50 (COLO 205) | GI50 (DLD-1) | GI50 (SW-620) | GI50 (HCC 2998) | GI50 (CAKI-1) | GI50 (HOP-62) | GI50 (Malme-3M) | GI50 (UACC-62) | GI50 (A498) | GI50 (MDA-N) | GI50 (PC-3) | GI50 (NCI/ADR-RES) |
| --- | --- | --- | --- | --- | --- | --- | --- | --- | --- | --- | --- | --- | --- | --- | --- | --- | --- | --- | --- | --- |
| CN(/C(=N\O)c1ccccc1)c1ccccc1 | 88.9 µM (inactive) | 22.6 µM (inactive) | 46.7 µM (inactive) | 27.8 µM (inactive) | 24.8 µM (inactive) | 78.2 µM (inactive) | 13.5 µM (inactive) | 21.3 µM (inactive) | 95.9 µM (inactive) | 29.4 µM (inactive) | 32.2 µM (inactive) | 25.9 µM (inactive) | 37.2 µM (inactive) | 22.9 µM (inactive) | 39.1 µM (inactive) | – | – | – | – | – |
| O=C1c2cccc(O)c2C(=O)c2c(O)cccc21 [DANTHRON] | > 100 µM (inactive) | 55.8 µM (inactive) | 49 µM (inactive) | > 100 µM (inactive) | > 100 µM (inactive) | 3.66 µM (inactive) | > 100 µM (inactive) | > 100 µM (inactive) | 22 µM (inactive) | 45 µM (inactive) | 64.1 µM (inactive) | 88.7 µM (inactive) | 33.7 µM (inactive) | > 100 µM (inactive) | – | 16 µM (inactive) | 17.9 µM (inactive) | – | – | – |
| O=C1/C(=C/c2ccccc2)CN(C(=O)OCC(Cl)(Cl)Cl)C/C1=C\c1ccccc1 | 5.52 µM (inactive) | 0.792 µM (active) | 1.33 µM (inactive) | 4.89 µM (inactive) | 1.76 µM (inactive) | 1.39 µM (inactive) | 3.86 µM (inactive) | – | 3.73 µM (inactive) | 1.91 µM (inactive) | 1.09 µM (active) | – | – | – | 3.2 µM (inactive) | 2.71 µM (inactive) | 2 µM (inactive) | – | – | – |
| COC1CC(n2cnc3c(N)ncnc32)OC1CO (stereo not given) | > 100 µM (inactive) | – | > 100 µM (inactive) | > 100 µM (inactive) | > 100 µM (inactive) | > 100 µM (inactive) | > 100 µM (inactive) | > 100 µM (inactive) | > 100 µM (inactive) | > 100 µM (inactive) | > 100 µM (inactive) | > 100 µM (inactive) | > 100 µM (inactive) | > 100 µM (inactive) | > 100 µM (inactive) | > 100 µM (inactive) | – | – | – | – |
| C/C(CC(=O)Nc1ccc(C)c(C)c1)=N\NC(N)=S | > 100 µM (inactive) | > 100 µM (inactive) | > 100 µM (inactive) | > 100 µM (inactive) | > 100 µM (inactive) | – | > 100 µM (inactive) | > 100 µM (inactive) | > 100 µM (inactive) | > 100 µM (inactive) | > 100 µM (inactive) | > 100 µM (inactive) | – | > 100 µM (inactive) | > 100 µM (inactive) | > 100 µM (inactive) | – | – | – | – |
| CNS(=O)(=O)NN(C)S(=O)(=O)c1ccc2ccccc2c1 | – | > 100 µM (inactive) | > 100 µM (inactive) | > 100 µM (inactive) | > 100 µM (inactive) | > 100 µM (inactive) | > 100 µM (inactive) | > 100 µM (inactive) | > 100 µM (inactive) | > 100 µM (inactive) | > 100 µM (inactive) | > 100 µM (inactive) | > 100 µM (inactive) | > 100 µM (inactive) | > 100 µM (inactive) | > 100 µM (inactive) | > 100 µM (inactive) | – | – | – |
| CC(=O)CC(=O)ON(C)C(C)=O | > 100 µM (inactive) | > 100 µM (inactive) | > 100 µM (inactive) | – | > 100 µM (inactive) | > 100 µM (inactive) | > 100 µM (inactive) | > 100 µM (inactive) | > 100 µM (inactive) | > 100 µM (inactive) | > 100 µM (inactive) | > 100 µM (inactive) | > 100 µM (inactive) | > 100 µM (inactive) | > 100 µM (inactive) | > 100 µM (inactive) | – | – | – | – |
| CCOC(=O)NC(=O)c1cn(C2OC(CO)C(O)C2O)c(=O)[nH]c1=O (stereo not given) | > 100 µM (inactive) | > 100 µM (inactive) | > 100 µM (inactive) | > 100 µM (inactive) | > 100 µM (inactive) | > 100 µM (inactive) | > 100 µM (inactive) | > 100 µM (inactive) | – | > 100 µM (inactive) | > 100 µM (inactive) | > 100 µM (inactive) | > 100 µM (inactive) | > 100 µM (inactive) | > 100 µM (inactive) | > 100 µM (inactive) | > 100 µM (inactive) | – | – | – |
| CCOc1ccc(NC(=O)CC2SC(Nc3ccc(C)cc3)=NC2=O)cc1 (stereo not given) | > 100 µM (inactive) | > 100 µM (inactive) | > 100 µM (inactive) | – | > 100 µM (inactive) | > 100 µM (inactive) | > 100 µM (inactive) | – | > 100 µM (inactive) | > 100 µM (inactive) | > 100 µM (inactive) | – | – | > 100 µM (inactive) | > 100 µM (inactive) | > 100 µM (inactive) | > 100 µM (inactive) | – | – | – |
| Fc1ccc2c(c1)SC1Oc3ccccc3-c3c1c-2nn3-c1ccccc1 (stereo not given) | > 100 µM (inactive) | > 100 µM (inactive) | 66.8 µM (inactive) | > 100 µM (inactive) | > 100 µM (inactive) | > 100 µM (inactive) | 86.7 µM (inactive) | – | > 100 µM (inactive) | > 100 µM (inactive) | > 100 µM (inactive) | > 100 µM (inactive) | – | 30.4 µM (inactive) | > 100 µM (inactive) | – | > 100 µM (inactive) | – | – | – |
| CN(C)CC/[N+]([O-])=C(/c1ccccc1)C12CC3CC(CC(C3)C1)C2 | 17.7 µM (inactive) | 15.3 µM (inactive) | 17.9 µM (inactive) | 18.2 µM (inactive) | 17.9 µM (inactive) | 13.8 µM (inactive) | 11.9 µM (inactive) | 12.5 µM (inactive) | 14 µM (inactive) | 16.1 µM (inactive) | – | 22.2 µM (inactive) | 17 µM (inactive) | 14.8 µM (inactive) | 39.7 µM (inactive) | 14 µM (inactive) | 18.3 µM (inactive) | – | – | – |
| O=CC(NC(=O)N(CCCl)N=O)C(O)C(O)C(O)CO (stereo not given) | 1140 µM (inactive) | – | – | 718 µM (inactive) | 1160 µM (inactive) | – | 262 µM (inactive) | 1240 µM (inactive) | > 1250 µM (inactive) | > 1250 µM (inactive) | 832 µM (inactive) | > 1030 µM (inactive) | 798 µM (inactive) | 136 µM (inactive) | 347 µM (inactive) | 47 µM (inactive) | 1120 µM (inactive) | 312 µM (inactive) | > 1250 µM (inactive) | 953 µM (inactive) |
| Nc1ncnc2c1N=CN(Oc1ccccc1)N2 | > 100 µM (inactive) | – | > 100 µM (inactive) | > 100 µM (inactive) | > 100 µM (inactive) | > 100 µM (inactive) | 14 µM (inactive) | > 100 µM (inactive) | > 100 µM (inactive) | > 100 µM (inactive) | > 100 µM (inactive) | – | > 100 µM (inactive) | – | 18.3 µM (inactive) | > 100 µM (inactive) | – | – | – | – |
| Clc1ccccc1C1=NN(c2ccccc2)C2c3cc(Br)ccc3OCC12 (stereo not given) | > 100 µM (inactive) | > 10 µM (inactive) | > 100 µM (inactive) | > 100 µM (inactive) | > 100 µM (inactive) | > 100 µM (inactive) | > 100 µM (inactive) | – | > 100 µM (inactive) | > 100 µM (inactive) | > 100 µM (inactive) | > 100 µM (inactive) | – | > 100 µM (inactive) | > 100 µM (inactive) | – | > 100 µM (inactive) | – | – | – |
| CC(CC(=O)Nc1ccc(NC(=O)CC(C)/N=N\C(N)=O)cc1)/N=N\C(N)=O (stereo not given) | > 100 µM (inactive) | 24.7 µM (inactive) | > 100 µM (inactive) | > 100 µM (inactive) | > 100 µM (inactive) | > 100 µM (inactive) | > 100 µM (inactive) | > 100 µM (inactive) | 34.8 µM (inactive) | 34.5 µM (inactive) | – | > 100 µM (inactive) | > 100 µM (inactive) | > 100 µM (inactive) | > 100 µM (inactive) | > 100 µM (inactive) | > 100 µM (inactive) | – | – | – |
| O=C(CC1(O)C(=O)Nc2ccc(Br)cc21)c1ccc(Cl)cc1Cl (stereo not given) | > 100 µM (inactive) | – | 31.8 µM (inactive) | 31.7 µM (inactive) | 47.9 µM (inactive) | 14.9 µM (inactive) | 38 µM (inactive) | 39.4 µM (inactive) | 65.5 µM (inactive) | 47.1 µM (inactive) | 37.1 µM (inactive) | 91.8 µM (inactive) | – | 83.6 µM (inactive) | 63.7 µM (inactive) | 17.2 µM (inactive) | > 100 µM (inactive) | – | – | – |
| COc1ccc2c(c1)CC[C@@H]1C2CC[C@]2(C)C(=N\O)/C(=N/O)CC12 (stereo not given in full) | 12.4 µM (inactive) | 2.43 µM (inactive) | 16 µM (inactive) | 13.1 µM (inactive) | 16.5 µM (inactive) | 17.2 µM (inactive) | – | 11 µM (inactive) | 14.3 µM (inactive) | 13.1 µM (inactive) | 17.6 µM (inactive) | 22.3 µM (inactive) | 10.7 µM (inactive) | 11.7 µM (inactive) | 17.7 µM (inactive) | 13.4 µM (inactive) | 19.1 µM (inactive) | – | – | – |
| COc1ccc(C2=NNC(=O)OC2c2ccccc2)cc1 (stereo not given) | > 100 µM (inactive) | 55 µM (inactive) | > 100 µM (inactive) | 36.1 µM (inactive) | > 100 µM (inactive) | 55.7 µM (inactive) | 28.1 µM (inactive) | 34.3 µM (inactive) | 78.2 µM (inactive) | – | 38.9 µM (inactive) | 34.1 µM (inactive) | 92.3 µM (inactive) | > 100 µM (inactive) | 52.8 µM (inactive) | 59.2 µM (inactive) | 49.4 µM (inactive) | – | – | – |
